Counter-ions that a name gives are not always drawn.
Experiments:
[1] = test system: potential dependent calcium channel; assay: Measurement of potential dependent calcium channel activity using fluorescent dye (fura2) in cerebral cortex synaptosome stimulated with KCl; assay type: cell-based, rat
[2] = test system: rat middle cerebral artery emphraxis model; assay: Shrinking effect of infarction nidus in rat middle cerebral artery emphraxis model; assay type: in vivo; details: for volume of the infarction nidus of cerebral cortex: average value±standard error, after 24 hours; for reduction of the volume of the infarction nidus of cerebral cortex: from 30 minutes after emphraxis, vs control group, measured after 24 hours
Description: Shrinking Effect of Infarction nidus in rat Middle Cerebral Artery Emphraxis Model (I)
A calcium ion in the cell plays an important role in the expression of various cell functions. But when the calcium ion concentration in the cell rises excessively, cell affection is induced (refer to literatures 1) and 2), hereinafter, the same as this.). For example, neural cell affection induced by excitatory amino-acid occurring in the case of cerebral ischemia provokes excessive rise of the calcium ion concentration in the cell (3) and 4)). The maintenance mechanism of membrane potential fails by excitatory amino-acid which rose in the case of local cerebral ischemia (3)), the depolarization of membrane is induced (5)), and the influx of the calcium ion into the cell through the potential dependent calcium channel is increased (6) and 7)). […] The potential dependent calcium channels existing in the neural cell are classified in 6 kinds of sub-types based on the electro-physiological and pharmacological investigation (T, L, N, P, Q and R types) (9)). Among these, N, P and Q types play an important role in the liberation of glutamic acid from rat cerebral cortex synaptosome (10) and 11)).
The compound represented by the above formula (I) according to the present invention was dissolved in a physiological saline, and appropriately prepared so as to be in doses of 1.5, 5 and 15 mg/kg/h. The concentration of the specimen was calculated based on the average body weight of an animal. Further, the average body weight was calculated by measuring the body weight of all animals which are intended to be used for experiment. For example, in the case of 5 mg/kg/h, it was calculated as: concentration of specimen=5 mg×average body weight (kg)/administration volume (0.616 ml) per hour. • (2) Manufacture of nylon embolus
The embolus made from nylon stitch (Ethicon, Inc., Somerville, N.J., USA) of 4-0 monofilament was used for emphraxis of middle cerebral artery. As the nylon embolus, that prepared by previously rounding its tip with flame, fragmenting it in a length of 25 mm, and marking at a position of 17 mm from the tip with an oily felt pen was used. • (3) Implantation of catheter for intravenous administration
The implantation of catheter for intravenous administration (Atom Vein Catheter 3Fr, manufactured by ATOM MEDICAL Co., Ltd., Tokyo) was carried out under 70% laughing gas-2% halothane anaesthesia. Catheter which was filled up with a physiological saline solution was inserted from the femoral vein of left foot. • (4) Emphraxis of middle cerebral artery
The emphraxis of middle cerebral artery was carried out in accordance with the method of Longa et al (12)). The operation was carried out under 70% laughing gas-2% halothane anaesthesia just after implanting the catheter. A rat was laid in facing upward under the stereoscopic microscope for operation, the neck was cut open, and the portion where the whole carotid arteries of the right side are diverged to the external carotid artery and the internal carotid artery was confirmed. The external carotid artery was cut off at the periphery side, and the nylon embolus was inserted from the terminal of the external carotid artery which was cut off into the internal carotid artery. The embolus was inserted up to the position where the position of 17 mm from the tip of the embolus is duplicated with a branch point of the external carotid artery and the internal carotid artery, and was fixed.
The rat was caught and lifted with the cauda after 30 minutes from the emphraxis of middle cerebral artery, an indivisual which expresses clearly the one side paralysis of a fore-leg (the paralysis of a fore-leg of the opponent side which loaded infarct) was provided for experiment as an example in which middle cerebral artery was occluded and was able to make an ischemia condition. • (6) Administration of medium and specimen […]

[3] = test system: formalin test using mouse; assay: Analgesic effect in formalin test using mouse; assay type: in vivo; details: licking time for 5 minutes
Method: Analgesic Effect (I) in Formalin Test Using Mouse
Therefore, the analgesic effect obtained in the case where the intravenous administration of the present compound was carried out was studied in the formalin test (3)) using a mouse.
Ddy mice (male, 4 to 7 weeks age) purchased from Japan SLC Co, were used for experiment. Preliminary feeding of 4 days or more was carried out for mice (breeding condition: a room temperature 23±1° C., air humidity 55±5%, lighting cycle of every 12 hours). The mice were accommodated by a group of approximately 20 in a cage made of polycarbonate for 20 mice in which floor cloth (White Flake, Charles River Co., Ltd., Tokyo) was spread, and were bred. At the morning of the day tested, they were moved to a laboratory. They were freely fed MF (Oriental Yeast Co., Tokyo) as a feed. Further, they drunk city water freely. […]
10 mg/kg of the present compound was intravenously administered via tail vein, 30 mg/kg of morphine was orally administered and 10 mg/kg of indomethacin was orally administered. […] Just after the administration of formalin, the licking time of an action in which a mouse licked his left hind leg was measured for 5 minutes, and it was made as an index of pain. […] Setting the licking time of the control as 100%, the suppression rate (%) of the present compound was calculated by the following calculation formula. […]

[4] = test system: T1, potential dependent calcium channel; details: 1 μM; cited from earlier work
T1 construct: other: 1 μM

[5] = test system: rat local cerebral ischemia model; details: literature reports, result in words; cited from earlier work
formalin test = details: administration in spinal cord, literature reports, result in words; cited from earlier work

COc1ccc(CCN(C)CCCC(C#N)(c2ccc(OC)c(OC)c2)C(C)C)cc1OC (centres unmarked) [Control, verapamil hydrochloride]
IC50 [1]: > 16 µM

CC(C)C(C#N)(CCCN1CCN(CCOc2cccc(C#N)c2)CC1)c1cccs1 (centres unmarked) [Example 75]
volume of the infarction nidus of cerebral cortex ([2]; 1.5 mg/kg/h intravenous): 119.9±12.6 mm^3
reduction of the volume of the infarction nidus of cerebral cortex ([2]; 1.5 mg/kg/h intravenous): 26%
volume of the infarction nidus of cerebral cortex ([2]; 5 mg/kg/h intravenous): 102.0±14.1 mm^3
reduction of the volume of the infarction nidus of cerebral cortex ([2]; 5 mg/kg/h intravenous): 37%
volume of the infarction nidus of cerebral cortex ([2]; 15 mg/kg/h intravenous): 83.7±21.3 mm^3
reduction of the volume of the infarction nidus of cerebral cortex ([2]; 15 mg/kg/h intravenous): 49%

CN1CC[C@]23c4c5ccc(O)c4O[C@H]2[C@@H](O)C=C[C@H]3[C@H]1C5 [morphine, reference compound]
suppression rate of licking time ([3]; 30 mg/kg orally, formalin 30 minutes after administration): 54%

n-conotoxin GVIA
inhibition against the Ca2+ influx [4]: 18%

ω-agatoxin IVA
protection of neural cells in rat local cerebral ischemia model [5]: exhibited a protective action for neural cell

CC(C)C(C#N)(CCCN1CCN(CCOc2cccc(C#N)c2)CC1)c1ccc(C#N)s1 (centres unmarked) [Example 70]
volume of the infarction nidus of cerebral cortex ([2]; 1.5 mg/kg/h intravenous): 128.9±12.5 mm^3
reduction of the volume of the infarction nidus of cerebral cortex ([2]; 1.5 mg/kg/h intravenous): 4%
volume of the infarction nidus of cerebral cortex ([2]; 5 mg/kg/h intravenous): 108.0±14.9 mm^3
reduction of the volume of the infarction nidus of cerebral cortex ([2]; 5 mg/kg/h intravenous): 20%
volume of the infarction nidus of cerebral cortex ([2]; 15 mg/kg/h intravenous): 75.7±11.2 mm^3
reduction of the volume of the infarction nidus of cerebral cortex ([2]; 15 mg/kg/h intravenous): 44%

w-Agatoxin-IVA
inhibition against the Ca2+ influx [4]: 64%

CSCC[C@@H]1NC(=O)[C@H](CC(C)C)NC(=O)[C@H](CCCNC(=N)N)NC(=O)[C@H](CO)NC(=O)[C@@H]2CSSC[C@@H]3NC(=O)[C@H](CO)NC(=O)CNC(=O)[C@H]([C@@H](C)O)NC(=O)[C@H](CSSC[C@H](N)C(=O)N[C@@H](CCCCN)C(=O)NCC(=O)N[C@@H](CCCCN)C(=O)NCC(=O)N[C@@H](C)C(=O)N[C@@H](CCCCN)C(=O)N2)NC(=O)[C@H](CSSC[C@@H](C(N)=O)NC(=O)[C@H](CCCCN)NC(=O)CNC(=O)[C@H](CO)NC(=O)[C@H](CCCNC(=N)N)NC3=O)NC(=O)[C@H](CC(=O)O)NC(=O)[C@H](Cc2ccc(O)cc2)NC1=O [SNX-111]
analgesic action in the formalin test (formalin test): exhibits an analgesic action
protection of neural cells in rat local cerebral ischemia model [5]: protected the liberation of glutamic acid from cerebral cortex and subsequent neural cell affection

CC(C)N(CCN1CCN(CCCC(C#N)(c2cccs2)C(C)C)CC1)c1ccccn1 (centres unmarked) [Example 189, 1-[4-cyano-4-(2-thienyl)-5-methylhexyl]-4-[2-{N-isopropyl-N-(2-pyridyl)amino]ethyl}Piperazine]
suppression rate of licking time ([3]; 10 mg/kg intravenously, formalin 5 minutes after administration): 59%

Source: patent US6906072B1, “Piperazine compound and pharmaceutical composition containing the compound” (Eisai Co., Ltd., priority 2000, dated 2005)
